Measurements: US4456604A, “1-(3-Halo-2-pyridinyl) piperazine” (Merck & Co., Inc., priority 1982, dated 1984)
Like-named read-outs stand apart in the source and are kept apart here.

Experiments:
α2-adrenergic receptor [1] = biological target: T1, α2-adrenergic receptor (Bos taurus, UniProt Q28838); experiment: α2-adrenergic receptor binding ([3H] clonidine binding site, calf cerebral cortex); details: for affinity for the α2-adrenergic receptors (in words): of the compounds tested, with the exception of compound 5
T1 construct: from tissue; host or cells: calf cerebral cortex
T1 sequence (Q28838 1-468): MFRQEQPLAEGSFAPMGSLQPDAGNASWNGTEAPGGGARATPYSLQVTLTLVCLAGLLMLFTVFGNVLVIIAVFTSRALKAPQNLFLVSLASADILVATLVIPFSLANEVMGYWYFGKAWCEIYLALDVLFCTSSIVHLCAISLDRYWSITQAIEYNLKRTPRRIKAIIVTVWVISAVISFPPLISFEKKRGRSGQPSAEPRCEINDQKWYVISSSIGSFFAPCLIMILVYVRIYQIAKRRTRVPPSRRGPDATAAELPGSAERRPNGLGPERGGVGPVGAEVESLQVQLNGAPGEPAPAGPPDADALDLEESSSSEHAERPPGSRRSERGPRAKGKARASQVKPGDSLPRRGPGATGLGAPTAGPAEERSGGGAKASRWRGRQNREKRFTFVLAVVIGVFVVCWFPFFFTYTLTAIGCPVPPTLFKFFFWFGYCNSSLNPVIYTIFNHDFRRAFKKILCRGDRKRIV
Procedure: (§1) The α1 - and α2 -adrenergic receptor binding was determined for 1-(3-halo-2-pyridinyl)piperazines and a number of other structurally related compounds shown in Table I.
(§2) Binding to the α2 -adrenergic receptor was determined by the method of Lyon and Randall, Life Sciences, 26, 1121 (1980) and also is expressed in Table I as Ki representing the affinity of each compound for the [^3 H] clonidine binding site in calf cerebral cortex.

α2-adrenergic receptor [2] = experiment: as above; details: compared to any of the other tested compounds
Procedure: as §1, §2

α1-adrenergic receptor = α1-adrenergic receptor binding ([3H] prazosin binding site, calf cerebral cortex); details: for Ki: [3H] prazosin binding site, calf cerebral cortex; for affinity for the α1-adrenergic receptors (in words): of the compounds tested
Procedure: as §1
Extent of binding to the α1 -adrenergic receptor was determined by the method of Greengrass and Bremner, Eur. J. Pharmacol., 55, 323 (1979) and is expressed in Table I as Ki, representing the affinity of each compound for the [^3 H] prazosin binding site in calf cerebral cortex.

[3] = test system: α1- or α2-adrenergic receptors; details: Clineschmidt et al. 1979; cited from earlier work
α2-adrenergic receptors = details: cited from earlier work
depression = details: in vivo; cited from earlier work
norepinephrine reuptake = details: cited from earlier work
[4] = test system: locomotor depressant effects of methyldopa; details: rats; Clineschmidt et al. 1980; cited from earlier work
[5] = test system: clonidine-induced sedation; details: man; Autret et al. 1977; cited from earlier work
[6] = test system: sedation produced by clonidine; details: Drew et al. 1979; cited from earlier work
[7] = [3H] clonidine binding site, calf cerebral cortex, read-out: Adrenergic Binding Ki α2

## Clc1cccnc1N1CCNCC1 [Compound 2, 1-(3-chloro-2-pyridinyl)piperazine]
α2-adrenergic receptor [1]; [7]
  Ki: 0.0079 µM
α2-adrenergic receptor [1]
  affinity for the α2-adrenergic receptors (in words): strongest affinity (lowest Ki)
α2-adrenergic receptor [2]
  selectivity or ratio of Kiα1/Kiα2 (in words): greatest selectivity
α1-adrenergic receptor
  Ki: 1.8 µM
  affinity for the α1-adrenergic receptors (in words): weakest affinity (highest Ki)

## Ic1cccnc1N1CCNCC1 [Compound 4]
α2-adrenergic receptor [1]; [7]
  Ki: 0.042 µM
α1-adrenergic receptor
  Ki: 1.6 µM

## Clc1ccc(N2CCNCC2)nc1 [Compound 8]
α2-adrenergic receptor [1]
  Ki: 1 µM

## c1ccc(N2CCNCC2)nc1 [Compound 7]
α2-adrenergic receptor [1]; [7]
  Ki: 0.037 µM
α1-adrenergic receptor
  Ki: 2.4 µM

## Clc1nccnc1N1CCNCC1 [Compound 10]
α2-adrenergic receptor [1]; [7]
  Ki: 0.16 µM
α1-adrenergic receptor
  Ki: 26 µM

## CN1CCN(c2ncccc2Br)CC1 [Compound 5]
α2-adrenergic receptor [1]; [7]
  Ki: 0.0029 µM
α1-adrenergic receptor
  Ki: 0.16 µM

## Clc1cncc(N2CCNCC2)n1 [Compound 9]
α2-adrenergic receptor [1]
  Ki: 0.127 µM
α1-adrenergic receptor
  Ki: 2.4 µM

## CN1CCN2c3ccccc3Cc3ccccc3C2C1 (centres unmarked) [Mianserin]
[3]
  selectivity for α1- or α2-adrenergic receptors: fails to exhibit any important selectivity for α1 - or α2 -adrenergic receptors
α2-adrenergic receptors
  α2-adrenergic receptor blockade: blocks α2 -adrenergic receptors
depression
  clinical antidepressant effectiveness: clinically effective antidepressant
Norepinephrine reuptake
  in vivo norepinephrine reuptake inhibiting properties: minimal in vivo norepinephrine reuptake inhibiting properties

## Brc1cccnc1N1CCNCC1 [Compound 3, 1-(3-bromo-2-pyridinyl)piperazine]
α2-adrenergic receptor [1]; [7]
  Ki: 0.011 µM
α2-adrenergic receptor [1]
  affinity for the α2-adrenergic receptors (in words): strongest affinity (lowest Ki)
α2-adrenergic receptor [2]
  selectivity or ratio of Kiα1/Kiα2 (in words): greatest selectivity
α1-adrenergic receptor
  Ki: 1.48 µM
  affinity for the α1-adrenergic receptors (in words): weakest affinity (highest Ki)

## Clc1cccc(N2CCNCC2)n1 [Compound 6]
α2-adrenergic receptor [1]; [7]
  Ki: 0.018 µM
α1-adrenergic receptor
  Ki: 0.5 µM

## Fc1cccnc1N1CCNCC1 [Compound 1, 1-(3-fluoro-2-pyridinyl)piperazine]
α2-adrenergic receptor [1]
  Ki: 0.0083 µM
  affinity for the α2-adrenergic receptors (in words): strongest affinity (lowest Ki)
α2-adrenergic receptor [2]
  selectivity or ratio of Kiα1/Kiα2 (in words): greatest selectivity
α1-adrenergic receptor
  Ki: 2.3 µM
  affinity for the α1-adrenergic receptors (in words): weakest affinity (highest Ki)

## COC(=O)[C@@H]1[C@H]2C[C@H]3c4[nH]c5ccccc5c4CCN3C[C@@H]2CC[C@@H]1O [yohimbine]
[4]
  effect on locomotor depressant effects of methyldopa: antagonizes
[5]
  effect on clonidine-induced sedation: reduce clonidine-induced sedation in man
[6]
  effect on sedation produced by clonidine: antagonizes the sedation produced by clonidine
